Test results taken from patent US20250034136A1 (Nimbus Wadjet, Inc., priority 2023, published 2025).

Columns and labels:
[1] = tested on: p21 induction in HCT116 cells; assay: p21 induction in HCT116 cells; type: cell-based; details: Homo sapiens, HCT-116, 24 h, HCT116 cells, 24 h compound incubation; read-out: P21_EC50
Summary of the method: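 EC50 from non-linear curve fit of p21 immunofluorescence (800 nm), with GAPDH (700 nm) read alongside. DMSO and a reference WRN inhibitor served as low and high controls. Cells (2,000/well) got 11 compound concentrations in duplicate for 24 h at 37 °C.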

[2] = target: WRN (BV08), human Werner helicase (Uniprot Q14191, amino acids 517-1235 with L1074F point mutation) (Homo sapiens (Human), UniProt Q14191, L1074F); assay: WRN (BV08) ADP-Glo assay; type: biochemical; details: class symbols A-E, read-out: ADP-Glo_hWRN_IC50
Sequence of WRN (BV08), human Werner helicase (Uniprot Q14191, amino acids 517-1235 with L1074F point mutation) (Q14191 other isoform, or with tags, fused parts or gaps L1074F (already in the parent)): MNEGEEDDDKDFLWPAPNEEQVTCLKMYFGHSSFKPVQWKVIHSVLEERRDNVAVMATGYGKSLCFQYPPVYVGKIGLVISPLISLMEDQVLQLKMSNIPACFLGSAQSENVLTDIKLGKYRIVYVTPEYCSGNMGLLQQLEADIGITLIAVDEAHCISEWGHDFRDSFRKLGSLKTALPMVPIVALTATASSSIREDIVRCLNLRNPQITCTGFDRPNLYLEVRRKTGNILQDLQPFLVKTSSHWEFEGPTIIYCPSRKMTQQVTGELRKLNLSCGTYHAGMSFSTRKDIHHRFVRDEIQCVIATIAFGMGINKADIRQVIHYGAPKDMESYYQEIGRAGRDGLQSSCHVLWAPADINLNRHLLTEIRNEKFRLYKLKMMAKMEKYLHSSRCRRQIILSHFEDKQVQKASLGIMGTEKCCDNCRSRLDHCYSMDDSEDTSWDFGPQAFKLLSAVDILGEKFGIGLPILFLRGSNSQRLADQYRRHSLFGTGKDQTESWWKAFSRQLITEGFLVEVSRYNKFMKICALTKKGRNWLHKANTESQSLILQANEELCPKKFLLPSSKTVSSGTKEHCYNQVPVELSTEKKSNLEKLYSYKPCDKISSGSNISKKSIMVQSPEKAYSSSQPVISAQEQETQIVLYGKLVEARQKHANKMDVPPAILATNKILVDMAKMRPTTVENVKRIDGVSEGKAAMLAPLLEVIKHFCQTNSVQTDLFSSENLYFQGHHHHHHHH

**Q.** For `CCc1c(N2CCN(C(=O)c3ncnc(C)c3O)CC2)c(=O)c2nc(N3C[C@@H]4[C@H](C3)[C@H]4N(C)C)cnc2n1CC(=O)Nc1ccc(C(F)(F)F)cc1Cl` [I-155, N-[2-chloro-4-(trifluoromethyl)phenyl]-2-{2-[(1R,5S,6S)-6-(dimethylamino)-3-azabicyclo[3.1.0]hexan-3-yl]-6-ethyl-7-[4-(5-hydroxy-6-methylpyrimidine-4-carbonyl)piperazin-1-yl]-8-oxo-5H,8H-pyrido[2,3-b]pyrazin-5-yl}acetamide], which EC50 [1] is on record?
**A.** > 5000 nM

**Q.** What about the IC50 [2] of the same compound?
**A.** 50 to 100 nM

**Q.** `CCc1c(N2CCN(C(=O)c3ncnc(C)c3O)CC2)c(=O)c2nc(N3CC4CC4C3)cnc2n1CC(=O)Nc1ccc(C(F)(F)F)cc1Cl` (stereo not shown) [I-156, 2-(2-{3-azabicyclo[3.1.0]hexan-3-yl}-6-ethyl-7-[4-(5-hydroxy-6-methylpyrimidine-4-carbonyl)piperazin-1-yl]-8-oxo-5H,8H-pyrido[2,3-b]pyrazin-5-yl)-N-[2-chloro-4-(trifluoromethyl)phenyl]acetamide] was tested. Which EC50 [1] did it give?
**A.** 500 to 2000 nM

**Q.** And the IC50 [2]?
**A.** 5 to 50 nM

**Q.** How did the EC50 [1] turn out when `C=C(F)c1cnc2c(n1)c(=O)c(N1CCN(C(=O)c3ncnc(C)c3O)CC1)c(CC)n2CC(=O)Nc1ccc(C(F)(F)F)cc1Cl` [I-157, N-[2-chloro-4-(trifluoromethyl)phenyl]-2-[6-ethyl-2-(1-fluoroethenyl)-7-[4-(5-hydroxy-6-methylpyrimidine-4-carbonyl)piperazin-1-yl]-8-oxo-5H,8H-pyrido[2,3-b]pyrazin-5-yl]acetamide] was run?
**A.** 500 to 2000 nM

**Q.** And the IC50 [2]?
**A.** 5 to 50 nM

**Q.** With `CCc1c(N2CCN(C(=O)c3c(C#N)cnc(C)c3O)CC2)c(=O)c2nc(C)cnc2n1CC(=O)Nc1ccc(C(F)(F)F)cc1Cl` [I-158, N-[2-chloro-4-(trifluoromethyl)phenyl]-2-{7-[4-(5-cyano-3-hydroxy-2-methylpyridine-4-carbonyl)piperazin-1-yl]-6-ethyl-2-methyl-8-oxo-5H,8H-pyrido[2,3-b]pyrazin-5-yl}acetamide] as the compound, how does the EC50 [1] read?
**A.** > 5000 nM

**Q.** What about the IC50 [2] of the same compound?
**A.** 5 to 50 nM

**Q.** Which results are given for `CCc1c(N2CCN(C(=O)c3ncnc(C)c3O)CC2)c(=O)c2nc(C3=CCN(C(=O)OC)C3)cnc2n1CC(=O)Nc1ccc(C(F)(F)F)cc1Cl` [I-159, methyl 3-[5-({[2-chloro-4-(trifluoromethyl)phenyl]carbamoyl}methyl)-6-ethyl-7-[4-(5-hydroxy-6-methylpyrimidine-4-carbonyl)piperazin-1-yl]-8-oxo-5H,8H-pyrido[2,3-b]pyrazin-2-yl]-2,5-dihydro-1H-pyrrole-1-carboxylate]?
**A.** EC50 [1]: > 5000 nM; IC50 [2]: 5 to 50 nM

**Q.** With `CCc1c(N2CCN(C(=O)c3ncnc(C)c3O)CC2)c(=O)c2nc(N3CC(F)(F)C3)cnc2n1CC(=O)Nc1ccc(C(F)(F)F)cc1Cl` [I-160, N-[2-chloro-4-(trifluoromethyl)phenyl]-2-[2-(3,3-difluoroazetidin-1-yl)-6-ethyl-7-[4-(5-hydroxy-6-methylpyrimidine-4-carbonyl)piperazin-1-yl]-8-oxo-5H,8H-pyrido[2,3-b]pyrazin-5-yl]acetamide] as the compound, how does the EC50 [1] read?
**A.** > 5000 nM

**Q.** And the IC50 [2]?
**A.** 5 to 50 nM

**Q.** With `CCc1c(N2CCN(C(=O)c3ncnc(C)c3O)CC2)c(=O)c2nc(NC3CCC3)cnc2n1CC(=O)Nc1ccc(C(F)(F)F)cc1Cl` [I-161, N-[2-chloro-4-(trifluoromethyl)phenyl]-2-[2-(cyclobutylamino)-6-ethyl-7-[4-(5-hydroxy-6-methylpyrimidine-4-carbonyl)piperazin-1-yl]-8-oxo-5H,8H-pyrido[2,3-b]pyrazin-5-yl]acetamide] as the compound, how does the EC50 [1] read?
**A.** 2000 to 5000 nM

**Q.** And the IC50 [2]?
**A.** 5 to 50 nM

**Q.** Which results are given for `CCc1c(N2CCN(C(=O)c3ncnc(C)c3O)CC2)c(=O)c2nc(N3CC4(CC4)C3)cnc2n1CC(=O)Nc1ccc(C(F)(F)F)cc1Cl` [I-162, 2-(2-{5-azaspiro[2.3]hexan-5-yl}-6-ethyl-7-[4-(5-hydroxy-6-methylpyrimidine-4-carbonyl)piperazin-1-yl]-8-oxo-5H,8H-pyrido[2,3-b]pyrazin-5-yl)-N-[2-chloro-4-(trifluoromethyl)phenyl]acetamide]?
**A.** EC50 [1]: 500 to 2000 nM; IC50 [2]: 5 to 50 nM

**Q.** How did the EC50 [1] turn out when `CCc1c(N2CCN(C(=O)c3ncnc(C)c3O)CC2)c(=O)c2nc(N3CCC4(COC4)C3)cnc2n1CC(=O)Nc1ccc(C(F)(F)F)cc1Cl` [I-163, N-[2-chloro-4-(trifluoromethyl)phenyl]-2-{6-ethyl-7-[4-(5-hydroxy-6-methylpyrimidine-4-carbonyl)piperazin-1-yl]-2-{2-oxa-6-azaspiro[3.4]octan-6-yl}-8-oxo-5H,8H-pyrido[2,3-b]pyrazin-5-yl}acetamide] was run?
**A.** > 5000 nM

**Q.** And the IC50 [2]?
**A.** 5 to 50 nM

**Q.** Which results are given for `CCc1c(N2CCN(C(=O)c3ncnc(C)c3O)CC2)c(=O)c2nc(N3CC(F)C3)cnc2n1CC(=O)Nc1ccc(C(F)(F)F)cc1Cl` [I-164, N-[2-chloro-4-(trifluoromethyl)phenyl]-2-[6-ethyl-2-(3-fluoroazetidin-1-yl)-7-[4-(5-hydroxy-6-methylpyrimidine-4-carbonyl)piperazin-1-yl]-8-oxo-5H,8H-pyrido[2,3-b]pyrazin-5-yl]acetamide]?
**A.** EC50 [1]: 2000 to 5000 nM; IC50 [2]: 5 to 50 nM

**Q.** How did the EC50 [1] turn out when `CCc1c(N2CCN(C(=O)c3ncnc(C)c3O)CC2)c(=O)c2nc(NC3CC3)cnc2n1CC(=O)Nc1ccc(C(F)(F)F)cc1Cl` [I-165, N-[2-chloro-4-(trifluoromethyl)phenyl]-2-[2-(cyclopropylamino)-6-ethyl-7-[4-(5-hydroxy-6-methylpyrimidine-4-carbonyl)piperazin-1-yl]-8-oxo-5H,8H-pyrido[2,3-b]pyrazin-5-yl]acetamide] was run?
**A.** 500 to 2000 nM

**Q.** And the IC50 [2]?
**A.** 5 to 50 nM

**Q.** How did the EC50 [1] turn out when `CCc1c(N2CCN(C(=O)c3ncnc(C)c3O)CC2)c(=O)c2nc(C=C3CCCC3)cnc2n1CC(=O)Nc1ccc(C(F)(F)F)cc1Cl` [I-166, N-[2-chloro-4-(trifluoromethyl)phenyl]-2-[2-(cyclopentylidenemethyl)-6-ethyl-7-[4-(5-hydroxy-6-methylpyrimidine-4-carbonyl)piperazin-1-yl]-8-oxo-5H,8H-pyrido[2,3-b]pyrazin-5-yl]acetamide] was run?
**A.** 500 to 2000 nM

**Q.** What about the IC50 [2] of the same compound?
**A.** ≤ 5 nM

**Q.** Which results are given for `CCc1c(N2CCN(C(=O)c3ncnc(C)c3O)CC2)c(=O)c2nc(N(C)CC(F)F)cnc2n1CC(=O)Nc1ccc(C(F)(F)F)cc1Cl` [I-167, N-[2-chloro-4-(trifluoromethyl)phenyl]-2-{2-[(2,2-difluoroethyl)(methyl)amino]-6-ethyl-7-[4-(5-hydroxy-6-methylpyrimidine-4-carbonyl)piperazin-1-yl]-8-oxo-5H,8H-pyrido[2,3-b]pyrazin-5-yl}acetamide]?
**A.** EC50 [1]: 2000 to 5000 nM; IC50 [2]: 5 to 50 nM

**Q.** With `CCc1c(N2CC3COCC(C2)N3C(=O)c2ncnc(C)c2O)c(=O)c2nc(N(C)C)cnc2n1CC(=O)Nc1ccc(C(F)(F)F)cc1Cl` [I-168, N-[2-chloro-4-(trifluoromethyl)phenyl]-2-[2-(dimethylamino)-6-ethyl-7-[9-(5-hydroxy-6-methylpyrimidine-4-carbonyl)-3-oxa-7,9-diazabicyclo[3.3.1]nonan-7-yl]-8-oxo-5H,8H-pyrido[2,3-b]pyrazin-5-yl]acetamide] as the compound, how does the EC50 [1] read?
**A.** > 5000 nM

**Q.** What about the IC50 [2] of the same compound?
**A.** 100 to 500 nM

**Q.** With `CCc1c(N2CCN(C(=O)c3ncnc(C)c3O)CC2)c(=O)c2nc(N3CCC34CCC4)cnc2n1CC(=O)Nc1ccc(C(F)(F)F)cc1Cl` [I-170, 2-(2-{1-azaspiro[3.3]heptan-1-yl}-6-ethyl-7-[4-(5-hydroxy-6-methylpyrimidine-4-carbonyl)piperazin-1-yl]-8-oxo-5H,8H-pyrido[2,3-b]pyrazin-5-yl)-N-[2-chloro-4-(trifluoromethyl)phenyl]acetamide] as the compound, how does the EC50 [1] read?
**A.** < 500 nM

**Q.** And the IC50 [2]?
**A.** 5 to 50 nM

**Q.** Which EC50 [1] does the source give for `CCc1c(N2CCN(C(=O)c3ncnc(C)c3O)CC2)c(=O)c2nc(C(C)(C)F)cnc2n1CC(=O)Nc1ccc(C(F)(F)F)cc1Cl` [I-174, N-[2-chloro-4-(trifluoromethyl)phenyl]-2-[6-ethyl-2-(2-fluoropropan-2-yl)-7-[4-(5-hydroxy-6-methylpyrimidine-4-carbonyl)piperazin-1-yl]-8-oxo-5H,8H-pyrido[2,3-b]pyrazin-5-yl]acetamide] here?
**A.** 2000 to 5000 nM

**Q.** And the IC50 [2]?
**A.** 5 to 50 nM

**Q.** Which results are given for `CCc1c(N2CCN(C(=O)c3ncnc(C)c3O)CC2)c(=O)c2nc(N(C)C(C)C)cnc2n1CC(=O)Nc1ccc(C(F)(F)F)cc1Cl` [I-175, N-[2-chloro-4-(trifluoromethyl)phenyl]-2-{6-ethyl-7-[4-(5-hydroxy-6-methylpyrimidine-4-carbonyl)piperazin-1-yl]-2-[methyl(propan-2-yl)amino]-8-oxo-5H,8H-pyrido[2,3-b]pyrazin-5-yl}acetamide]?
**A.** EC50 [1]: 2000 to 5000 nM; IC50 [2]: 5 to 50 nM

**Q.** With `CCc1c(N2CCN(C(=O)c3ncnc(C)c3O)C3(CC3)C2)c(=O)c2nc(N(C)C)cnc2n1CC(=O)Nc1ccc(C(F)(F)F)cc1Cl` [I-176, N-[2-chloro-4-(trifluoromethyl)phenyl]-2-[2-(dimethylamino)-6-ethyl-7-[4-(5-hydroxy-6-methylpyrimidine-4-carbonyl)-4,7-diazaspiro[2.5]octan-7-yl]-8-oxo-5H,8H-pyrido[2,3-b]pyrazin-5-yl]acetamide] as the compound, how does the EC50 [1] read?
**A.** > 5000 nM

**Q.** What about the IC50 [2] of the same compound?
**A.** 50 to 100 nM

**Q.** What does the source list for `CCc1c(N2CCN(C(=O)c3ncnc(C)c3O)CC2)c(=O)c2nc(N3CCC(F)(F)C3)cnc2n1CC(=O)Nc1ccc(C(F)(F)F)cc1Cl` [I-177, N-[2-chloro-4-(trifluoromethyl)phenyl]-2-[2-(3,3-difluoropyrrolidin-1-yl)-6-ethyl-7-[4-(5-hydroxy-6-methylpyrimidine-4-carbonyl)piperazin-1-yl]-8-oxo-5H,8H-pyrido[2,3-b]pyrazin-5-yl]acetamide]?
**A.** EC50 [1]: > 5000 nM; IC50 [2]: 5 to 50 nM

**Q.** Which EC50 [1] does the source give for `CCc1c(N2CCN(C(=O)c3ncnc(C)c3O)C(CO)C2)c(=O)c2nc(N(C)C)cnc2n1CC(=O)Nc1ccc(C(F)(F)F)cc1Cl` (stereo not shown) [I-178, N-[2-chloro-4-(trifluoromethyl)phenyl]-2-[2-(dimethylamino)-6-ethyl-7-[4-(5-hydroxy-6-methylpyrimidine-4-carbonyl)-3-(hydroxymethyl)piperazin-1-yl]-8-oxo-5H,8H-pyrido[2,3-b]pyrazin-5-yl]acetamide] here?
**A.** > 5000 nM

**Q.** What about the IC50 [2] of the same compound?
**A.** 5 to 50 nM
